± gives the expanded uncertainty stated by the source.
Assay: mn = molality of the nth substance listed, in mol/kg
Conditions: 101 kPa, Liquid; for viscosity: Capillary tube (Ostwald / Ubbelohde) method

Cc1ccc(S(=O)(=O)O)cc1.O=C1CCCN1C1CCCCC1 [1-cyclohexyl-2-pyrrolidinone 4-methylbenzenesulfonate] + O
Conditions | mass density, 298.15 K [kg/m3] | mass density, 303.15 K [kg/m3] | mass density, 308.15 K [kg/m3] | viscosity, 298.15 K [mPa·s] | viscosity, 303.15 K [mPa·s] | viscosity, 308.15 K [mPa·s]
m1 = 0.0502 | 1000.25 ± 0.76 | 998.76 ± 0.77 | 997.02 ± 0.78 | 0.9563 ± 0.011 | 0.8427 ± 0.0098 | 0.7524 ± 0.0088
m1 = 0.1025 | 1003.22 ± 0.79 | 1001.6 ± 0.77 | 999.85 ± 0.76 | 0.9991 ± 0.011 | 0.8853 ± 0.01 | 0.7957 ± 0.0093
m1 = 0.1513 | 1005.86 ± 0.82 | 1004.3 ± 0.8 | 1002.49 ± 0.78 | 1.035 ± 0.012 | 0.9171 ± 0.011 | 0.8304 ± 0.0097
m1 = 0.1991 | 1008.58 ± 0.84 | 1006.95 ± 0.83 | 1005.1 ± 0.81 | 1.082 ± 0.013 | 0.9514 ± 0.011 | 0.8636 ± 0.01
m1 = 0.2492 | 1011.41 ± 0.87 | 1009.76 ± 0.86 | 1007.84 ± 0.84 | 1.134 ± 0.013 | 0.9897 ± 0.011 | 0.8957 ± 0.01
m1 = 0.3015 | 1014.32 ± 0.91 | 1012.57 ± 0.89 | 1010.6 ± 0.87 | 1.186 ± 0.014 | 1.036 ± 0.012 | 0.9333 ± 0.011
m1 = 0.3524 | 1017.03 ± 0.93 | 1015.23 ± 0.92 | 1013.12 ± 0.9 | 1.24 ± 0.014 | 1.08 ± 0.013 | 0.9639 ± 0.011
m1 = 0.4007 | 1019.46 ± 0.96 | 1017.48 ± 0.94 | 1015.41 ± 0.92 | 1.289 ± 0.015 | 1.123 ± 0.013 | 0.9982 ± 0.012
m1 = 0.4491 | 1021.74 ± 0.99 | 1019.79 ± 0.97 | 1017.58 ± 0.95 | 1.337 ± 0.015 | 1.165 ± 0.014 | 1.029 ± 0.012
m1 = 0.4976 | 1023.93 ± 1 | 1021.92 ± 0.99 | 1019.7 ± 0.97 | 1.383 ± 0.016 | 1.207 ± 0.014 | 1.066 ± 0.013
m1 = 0.5503 | 1026.3 ± 1 | 1024.26 ± 1 | 1021.89 ± 0.99 | 1.435 ± 0.017 | 1.254 ± 0.015 | 1.104 ± 0.013
m1 = 0.6019 | 1028.47 ± 1.1 | 1026.37 ± 1 | 1023.96 ± 1 | 1.485 ± 0.017 | 1.3 ± 0.015 | 1.145 ± 0.013
m1 = 0.6492 | 1030.43 ± 1.1 | 1028.29 ± 1.1 | 1025.85 ± 1 | 1.537 ± 0.018 | 1.344 ± 0.016 | 1.184 ± 0.014
m1 = 0.7521 | 1034.7 ± 1.1 | 1032.51 ± 1.1 | 1030.01 ± 1.1 | 1.648 ± 0.019 | 1.44 ± 0.017 | 1.272 ± 0.015
m1 = 0.8074 | 1037 ± 1.2 | 1034.74 ± 1.1 | 1032.32 ± 1.1 | 1.715 ± 0.02 | 1.497 ± 0.017 | 1.323 ± 0.015
m1 = 0.9012 | 1040.82 ± 1.2 | 1038.55 ± 1.2 | 1036.16 ± 1.2 | 1.829 ± 0.021 | 1.596 ± 0.019 | 1.412 ± 0.017
m1 = 1.002 | 1044.83 ± 1.2 | 1042.52 ± 1.2 | 1040.19 ± 1.2 | 1.966 ± 0.023 | 1.7 ± 0.02 | 1.506 ± 0.018
m1 = 1.199 | 1051.36 ± 1.3 | 1048.95 ± 1.3 | 1046.4 ± 1.3 | 2.233 ± 0.026 | 1.907 ± 0.023 | 1.688 ± 0.02

CN1CCCC1=O.O=S(=O)(O)c1ccccc1 [1-methyl-2-pyrrolidinone benzenesulfonate] + O
Conditions | mass density, 298.15 K [kg/m3] | mass density, 303.15 K [kg/m3] | mass density, 308.15 K [kg/m3] | viscosity, 298.15 K [mPa·s] | viscosity, 303.15 K [mPa·s] | viscosity, 308.15 K [mPa·s]
m1 = 0.0521 | 1000.25 ± 0.76 | 998.54 ± 0.77 | 996.69 ± 0.79 | 0.9266 ± 0.011 | 0.8213 ± 0.0095 | 0.7506 ± 0.0087
m1 = 0.1042 | 1003.16 ± 0.79 | 1001.68 ± 0.77 | 999.93 ± 0.76 | 0.9506 ± 0.011 | 0.845 ± 0.0098 | 0.7706 ± 0.009
m1 = 0.1369 | 1004.9 ± 0.8 | 1003.46 ± 0.79 | 1001.57 ± 0.77 | 0.9685 ± 0.011 | 0.8602 ± 0.01 | 0.7809 ± 0.0091
m1 = 0.2057 | 1008.79 ± 0.84 | 1007.07 ± 0.83 | 1004.83 ± 0.81 | 1.003 ± 0.012 | 0.8912 ± 0.01 | 0.8063 ± 0.0094
m1 = 0.2512 | 1011.09 ± 0.87 | 1009.23 ± 0.85 | 1006.69 ± 0.83 | 1.028 ± 0.012 | 0.9109 ± 0.011 | 0.8208 ± 0.0096
m1 = 0.2984 | 1013.59 ± 0.89 | 1011.55 ± 0.87 | 1008.84 ± 0.85 | 1.055 ± 0.012 | 0.9313 ± 0.011 | 0.8393 ± 0.0098
m1 = 0.3556 | 1016.55 ± 0.92 | 1014.41 ± 0.9 | 1011.59 ± 0.88 | 1.083 ± 0.013 | 0.9567 ± 0.011 | 0.8611 ± 0.01
m1 = 0.4028 | 1018.9 ± 0.95 | 1016.7 ± 0.93 | 1013.74 ± 0.9 | 1.107 ± 0.013 | 0.9774 ± 0.011 | 0.8786 ± 0.01
m1 = 0.4537 | 1021.44 ± 0.98 | 1019.25 ± 0.96 | 1016.36 ± 0.93 | 1.133 ± 0.013 | 1.002 ± 0.012 | 0.8972 ± 0.01
m1 = 0.5093 | 1024.16 ± 1 | 1022.14 ± 0.99 | 1019.21 ± 0.96 | 1.16 ± 0.013 | 1.025 ± 0.012 | 0.9174 ± 0.011
m1 = 0.6018 | 1028.61 ± 1.1 | 1026.63 ± 1 | 1023.82 ± 1 | 1.204 ± 0.014 | 1.065 ± 0.012 | 0.9514 ± 0.011
m1 = 0.6492 | 1030.83 ± 1.1 | 1028.91 ± 1.1 | 1026.28 ± 1 | 1.226 ± 0.014 | 1.085 ± 0.013 | 0.9692 ± 0.011
m1 = 0.7511 | 1035.5 ± 1.1 | 1033.54 ± 1.1 | 1030.78 ± 1.1 | 1.277 ± 0.015 | 1.13 ± 0.013 | 1.009 ± 0.012
m1 = 0.8129 | 1038.24 ± 1.2 | 1036.23 ± 1.1 | 1033.29 ± 1.1 | 1.309 ± 0.015 | 1.158 ± 0.014 | 1.034 ± 0.012
m1 = 0.871 | 1040.72 ± 1.2 | 1038.49 ± 1.2 | 1035.54 ± 1.1 | 1.341 ± 0.016 | 1.185 ± 0.014 | 1.059 ± 0.012
m1 = 0.9001 | 1042.02 ± 1.2 | 1039.67 ± 1.2 | 1036.66 ± 1.1 | 1.358 ± 0.016 | 1.198 ± 0.014 | 1.072 ± 0.013
m1 = 1.019 | 1047.01 ± 1.2 | 1044.27 ± 1.2 | 1041.12 ± 1.2 | 1.423 ± 0.017 | 1.257 ± 0.015 | 1.127 ± 0.013
m1 = 1.199 | 1054.33 ± 1.3 | 1052.06 ± 1.3 | 1049.61 ± 1.3 | 1.54 ± 0.018 | 1.358 ± 0.016 | 1.219 ± 0.014
